US12157772B2, “Prophylactic agent, onset-suppressing agent or therapeutic agent for progressive immune demyelinating diseases” (NATIONAL CENTER OF NEUROLOGY AND PSYCHIATRY, priority 2016, dated 2024)

Legend:
[1] = test system: NR4A2-deficient mouse in which monophasic EAE had been induced; test: EAE clinical score in NR4A2-deficient mice with induced monophasic EAE; format: in vivo
Excerpt: (§1) Into each CD4-Cre/NR4A2^fl/fl mouse in which monophasic EAE had been induced in a similar manner to the above 1.(3), L-dopa or a placebo (DMSO and PBS) was intraperitoneally injected every other day from day 4 after the induction.

[2] = test system: CD4+ T cells, CD19+ B cells, CD19-CD45hi non-B/class II+ antigen-presenting cells infiltrated into the CNS; test: Eomes and Zbtb20 expression in CNS-infiltrated cells after L-dopa dosing (FACS); format: in vivo, mouse; details: CNS at day 32 after the induction
Excerpt: as §1
Next, the brain and the spinal cord were collected from each mouse at day 32 after the induction; and CD4^+ T cells, CD19^+ B cells, or CD19^−CD45^hi non-B/class II^+ antigen-presenting cells infiltrated into the CNS were sorted by FACS using a FACS ARIA II (manufactured by BD Cytometry Systems, Inc.). The respective sorted cells were stained and analyzed regarding the Eomes and Zbtb20 gene expressions. As antibodies used at the detection were an anti-CD4 antibody (manufactured by Biolegend, Inc.), an anti-Eomes antibody (manufactured by eBioscience, Inc.), an anti-CD19 antibody (manufactured by Biolegend, Inc.), and an anti-Zbtb20 antibody (manufactured by Becton Dickinson, Inc.).

prolactin gene (Prl) = test: Prolactin gene (Prl) expression in CNS-derived antigen-presenting cells after L-dopa dosing (quantitative real-time PCR); format: in vivo, mouse; details: CNS-derived B cells and non-B/class II+ antigen-presenting cells; repeated dosing; FIG. 25
Protocol: Next, CD19^+ B cells and CD19^−CD45^hi non-B/class II^+ antigen-presenting cells were separated from the CNS or the spleen of each L-dopa-administered mouse or each intact mouse; and the expression levels of prolactin gene (Prl) in these types of cells were analyzed by using a quantitative real-time PCR assay. As antibodies used at the detection were an anti-CD19 antibody (manufactured by Biolegend, Inc.) and an anti-CD45 antibody (manufactured by Biolegend, Inc.).

[3] = test system: CD19+ B cells or CD19-CD45hi non-B/class II+ antigen-presenting cells; details: CD19+ B cells and CD19-CD45hi non-B class II+ cells; cultured 24, 48 or 96 h with dopamine; FIG. 22
Protocol: CD19^+ B cells or CD19^−CD45^hi non-B/class II^+ antigen-presenting cells were purified from each mouse with the late-stage EAE pathology by sorting by FACS. The respective purified cells were cultured for 24, 48, or 96 h in the absence of dopamine or in the presence of a specific amount of dopamine. Next, the cultured cells were recovered and the prolactin gene (Prl) and Zbtb20 gene expression levels were analyzed by using a quantitative real-time PCR assay.

[4] = test system: Spleen-derived CD19+ B cells; test: Zbtb20 expression in spleen-derived CD19+ B cells cultured with LPS and various cytokines; format: cell-based, mouse; details: cultured for 24 h in the presence of LPS and cytokine; FIG. 33
Protocol: Spleen-derived CD19^+ B cells were isolated and purified by sorting by FACS using a FACS ARIA II (manufactured by BD Cytometry Systems, Inc.). The purified B cells were cultured for 24 h in the presence of LPS and in the co-presence or absence of each cytokine designated in FIG. 33(a). After the culturing, the expression levels of Zbtb20 gene in the respective cells were measured. As antibodies used at the detection were an anti-CD19 antibody (manufactured by Biolegend, Inc.) and an anti-Zbtb20 antibody (manufactured by Becton Dickinson, Inc.).

[5] = test system: Spleen-derived CD226+CD4+ T cells; test: Culturing of spleen-derived CD226+CD4+ T cells in co-presence of prolactin, Eomes expression (flow cytometer / quantitative real-time PCR); format: cell-based, mouse
Protocol: Spleen-derived CD226^+CD4^+ T cells collected from each intact wild-type B6 mouse were cultured for 4 h or 8 h in the absence of prolactin or in the presence of each specific amount of prolactin. The Eomes expression levels in the respective cells after the culturing were measured by using a flow cytometer or a quantitative real-time PCR assay. As antibodies used at the detection were an anti-CD4 antibody (manufactured by Biolegend, Inc.) and an anti-Eomes antibody (manufactured by eBioscience, Inc.).

Spleen-derived Th cells = test: Prolactin addition and Eomes gene expression in spleen-derived Th cells (quantitative real-time PCR); format: cell-based, mouse; details: cultured 8 h; recombinant prolactin at low and high concentration; FIG. 15
Protocol: Spleen-derived Th cells of each intact mouse were cultured for 8 h in the absence or presence of recombinant prolactin. After the culturing, total RNA was extracted from the Th cells. A first strand cDNA synthesis kit (manufactured by Takara Bio Inc.) was used to synthesize cDNA from the total RNA obtained. A Light Cycler instrument was used under conditions using a Light Cycler-Fast Start DNA Master SYBR Green I kit (manufactured by Roche Diagnostics, Inc.) or an ABI 7300 real-time PCR instrument was used under conditions using a Power SYBR Green Master mix (manufactured by Applied Biosystems, Inc.) to perform a quantitative real-time PCR assay by using commercially available primers (QuantiTect Primer Assay, QT01074332; manufactured by Qiagen, Inc.). The Eomes gene expression levels were corrected based on the expression level of a housekeeping gene GAPDH.

[6] = test system: Spleen-derived CD226+ Th cells; test: Prolactin addition and Eomes protein expression in spleen-derived CD226+ Th cells (FACS); format: cell-based, mouse; details: cultured for 48 h in the presence of prolactin; FIG. 16
Protocol: Spleen-derived CD226^+ Th cells were cultured for 8 h or 48 h in the absence or presence of prolactin. After the culturing, the CD226^+ Th cells were stained with an anti-CD226 antibody and an anti-Eomes antibody, and a FACS CANTO II (manufactured by BD Cytometry Systems, Inc.) was used to analyze CD226^+Eomes^+ T cells, CD226^+ Eomes^− T cells, and CD226^− T cells. As the antibodies used during the analysis were an anti-CD226 antibody (manufactured by Biolegend, Inc.) and an anti-Eomes antibody (manufactured by Biolegend, Inc.).

N[C@@H](Cc1ccc(O)c(O)c1)C(=O)O [L-dopa, L-3,4-dihydroxyphenylalanine]
cumulative EAE scores ([1]; intraperitoneally every other day from day 4, right graph of FIG. 23): improvement | EAE scores ([1]; intraperitoneally every other day from day 4 after the induction, FIG. 23): improve markedly | percentage of CD4+Eomes+ T cells in the CD4+ T cells ([2]; FIG. 24(a)): decrease markedly | percentage of Zbtb20+ cells in the CD19+ B cells ([2]; FIG. 24(b)): decrease | percentage of Zbtb20+ cells in the CD19-CD45hi non-B/class II+ antigen-presenting cells ([2]; FIG. 24(c)): decrease | expression levels of prolactin gene (prolactin gene (Prl)): decrease

NCCc1ccc(O)c(O)c1 [dopamine]
Zbtb20 gene expression levels [3]: decreased markedly | prolactin gene expression levels [3]: decreased markedly

IFNα
increase in the expression of Zbtb20 gene [4]: the most remarkable

B1: prolactin: recombinant prolactin added to Th cell cultures (protein, UniProt P01236 29-227, looked up)
Prolactin: LPICPGGAARCQVTLRDLFDRAVVLSHYIHNLSSEMFSEFDKRYTHGRGFITKAINSCHTSSLATPEDKEQAQQMNQKDFLSLIVSILRSWNEPLYHLVTEVRGMQEAPEAILSKAVEIEEQTKRLLEGMELIVSQVHPETKENEIYPVWSGLPSLQMADEESRLSAYYNLLHCLRRDSHKIDNYLKLLKCRIIHNNNC
Eomes gene expression level ([5]; prolactin at 30 ng/mL, FIG. 8(b)): increased | percentage of CD4+Eomes+ T cells ([5]; prolactin at 30 or 100 ng/mL, cultured 4 h or 8 h, FIG. 7, 8(a)): increased markedly | relative expression level of Eomes relative to that of a housekeeping gene (Spleen-derived Th cells): increased in a prolactin concentration-dependent fashion | Eomes expression levels [6]: increased more markedly
